Laboratory results: ChEMBL document CHEMBL4152274, “Design, synthesis and X-ray crystallography of selenides bearing benzenesulfonamide moiety with neuropathic pain modulating effects” (Eur J Med Chem, 2018)
Active and inactive are the calls of the source. The rule behind the calls is not given here.

What follows are molecules tested against Carbonic anhydrase 9 (Homo sapiens, UniProt Q16790) (assay: Inhibition of human carbonic anhydrase 9 incubated for 15 mins prior to testing by stopped-flow CO2 hydration assay).

**Q.** NS(=O)(=O)c1ccc([Se]Cc2ccccc2)cc1 was tested. Which Ki did it give?
**A.** 549 nM

**Q.** NS(=O)(=O)c1ccc([Se]CC2CC2)cc1 was tested. Which Ki did it give?
**A.** 46.4 nM

**Q.** COc1ccc(C(=O)Nc2ccc([Se]Cc3ccc(S(N)(=O)=O)cc3)cc2)c(OC)c1 was tested. Which Ki did it give?
**A.** 845 nM

**Q.** N#C[Se]Cc1ccc(S(N)(=O)=O)cc1 was tested. Which Ki did it give?
**A.** 4 nM

**Q.** Which Ki does the source give for Nc1ccc([Se]Cc2ccc(S(N)(=O)=O)cc2)cc1 here?
**A.** 286 nM

**Q.** Which Ki does the source give for Cc1cc(C)cc(NC(=O)Nc2ccc([Se]Cc3ccc(S(N)(=O)=O)cc3)cc2)c1 here?
**A.** 1140 nM

**Q.** For NS(=O)(=O)c1ccc(C[Se]c2ccc3ccccc3c2)cc1, which Ki is on record?
**A.** 337 nM

**Q.** With CN(C)c1ccc([Se]Cc2ccc(S(N)(=O)=O)cc2)cc1 as the molecule, how does the Ki read?
**A.** 450 nM

**Q.** For NS(=O)(=O)c1ccc(C[Se]c2ccc(NC(=O)/C=C/c3ccccc3)cc2)cc1, which Ki is on record?
**A.** 1010 nM

**Q.** How did the Ki turn out when NS(=O)(=O)c1ccc(C[Se]c2ccc(NC(=O)Nc3ccc(F)cc3)cc2)cc1 was run?
**A.** 1070 nM

**Q.** For NS(=O)(=O)c1ccc(C[Se]c2ccc(NC(=S)Nc3ccc(-c4c5ccc(=O)cc-5oc5cc(O)ccc45)c(C(=O)O)c3)cc2)cc1, which Ki is on record?
**A.** 697 nM

**Q.** With CC(=O)Oc1ccccc1C(=O)Nc1ccc([Se]Cc2ccc(S(N)(=O)=O)cc2)cc1 as the molecule, how does the Ki read?
**A.** 710 nM

Each molecule was assayed on Mus musculus (assay: Pain relieving effect in mouse oxaliplatin-induced neuropathic pain model at 100 mg/kg, po measured over 15 to 45 mins by cold plate test).
Type: functional, organism-based

**Q.** Which Activity does the source give for NS(=O)(=O)c1ccc([Se]CCc2ccccc2)cc1 here?
**A.** Active

**Q.** How did the Activity turn out when COCC[Se]c1ccc(S(N)(=O)=O)cc1 was run?
**A.** Active

Each molecule was assayed on Mus musculus (assay: Pain relieving effect in mouse oxaliplatin-induced neuropathic pain model at 30 mg/kg, po measured at 30 mins by cold plate test).
Type: functional, organism-based

**Q.** How did the Activity turn out when NS(=O)(=O)c1ccc(C[Se]c2ccccc2)cc1 was run?
**A.** Active
